Results taken from ChEMBL document CHEMBL1158702, “Cytotoxic 4-phenylcoumarins from the leaves of Marila pluricostata” (2005).
In brackets after ≈: the same amount, converted by molar mass.

Experiments:
Format in all cases: functional
[1] = test system: MCF7; test: Cytotoxicity against human MCF7 cells
[2] = test system: NCI-H460; test: Cytotoxicity against human H460 cells
[3] = test system: SF-268; test: Cytotoxicity against human SF268 cells

SMILES	GI50 [1] [µg/mL]	GI50 [2] [µg/mL]	GI50 [3] [µg/mL]
CCC(C)C(=O)c1c(O)c(CC=C(C)C)c2oc(=O)cc(-c3ccccc3)c2c1O (configuration not stated)	0.2 (≈ 0.492 µM)	0.1 (≈ 0.246 µM)	0.1 (≈ 0.246 µM)
COc1c(C(=O)CC(C)C)c(O)c(CC=C(C)C)c2oc(=O)cc(-c3ccccc3)c12	0.4 (≈ 0.951 µM)	0.5 (≈ 1.19 µM)	0.4 (≈ 0.951 µM)
CC(C)=CCc1c(O)cc(O)c2c(-c3ccccc3)cc(=O)oc12	3.4 (≈ 10.5 µM)	4.4 (≈ 13.6 µM)	4.8 (≈ 14.9 µM)
CCC(C)C(=O)c1c2c(c3oc(=O)cc(-c4ccccc4)c3c1O)C=CC(C)(C)O2 (configuration not stated)	9.6 (≈ 23.7 µM)	> 10	> 10
CC1(C)CCc2c(cc(O)c3c(-c4ccccc4)cc(=O)oc23)O1	5.7 (≈ 17.7 µM)	6.7 (≈ 20.8 µM)	7.8 (≈ 24.2 µM)
CCC(=O)c1c2c(c3oc(=O)cc(-c4ccccc4)c3c1O)CCC(C)(C)O2	4.7 (≈ 12.4 µM)	5.7 (≈ 15.1 µM)	6.8 (≈ 18 µM)
CCC(C)C(=O)c1c2c(c3oc(=O)cc(-c4ccccc4)c3c1O)C[C@@H](C(C)(C)O)O2 (some centres not stated)	3.4 (≈ 8.05 µM)	4.4 (≈ 10.4 µM)	4.8 (≈ 11.4 µM)
CCC(C)C(=O)c1c(O)c(CC=C(C)C)c(O)c2c(-c3ccccc3)cc(=O)oc12 (configuration not stated)	0.2 (≈ 0.492 µM)	0.3 (≈ 0.738 µM)	0.1 (≈ 0.246 µM)
CC(C)CC(=O)c1c2c(c3oc(=O)cc(-c4ccccc4)c3c1O)C[C@@H](C(C)(C)O)O2 [CYCLOMAMMEISIN]	4.2 (≈ 9.94 µM)	4.6 (≈ 10.9 µM)	5.2 (≈ 12.3 µM)
C=C(C)C(O)Cc1c(O)c(C(=O)CC(C)C)c(O)c2c(-c3ccccc3)cc(=O)oc12 (configuration not stated) [DISPARINOL A]	0.9 (≈ 2.13 µM)	0.6 (≈ 1.42 µM)	0.5 (≈ 1.18 µM)
CC(C)CC(=O)c1c(O)cc(O)c2c(-c3ccccc3)cc(=O)oc12 [ISODISPAR B]	1.5 (≈ 4.43 µM)	1.9 (≈ 5.62 µM)	1.8 (≈ 5.32 µM)
CC(C)=CCc1c(O)c(C(=O)CC(C)C)c2oc(=O)cc(-c3ccccc3)c2c1O [ISOMAMMEISIN]	0.7 (≈ 1.72 µM)	0.8 (≈ 1.97 µM)	0.6 (≈ 1.48 µM)
CC(C)=CCc1c(O)c(C(=O)C(C)C)c2oc(=O)cc(-c3ccccc3)c2c1O [ISOMESUOL]	0.7 (≈ 1.78 µM)	0.6 (≈ 1.53 µM)	0.6 (≈ 1.53 µM)
CC(C)CC(=O)c1c2c(c3oc(=O)cc(-c4ccccc4)c3c1O)C=CC(C)(C)O2 [MAMMEIGIN]	> 10	> 10	> 10
CC(=O)Oc1c(C(=O)CC(C)C)c(OC(C)=O)c2c(-c3ccccc3)cc(=O)oc2c1CC=C(C)C [MAMMEISIN DIACETATE]	0.6	0.6	0.5
CC(C)=CCc1c(O)c(C(=O)CC(C)C)c(O)c2c(-c3ccccc3)cc(=O)oc12 [MAMMEISIN]	0.2 (≈ 0.492 µM)	0.2 (≈ 0.492 µM)	0.1 (≈ 0.246 µM)
CC(C)C(=O)c1c2c(c3oc(=O)cc(-c4ccccc4)c3c1O)C=CC(C)(C)O2 [MESUAGIN]	> 10	> 10	> 10
CC(C)C(=O)c1c2c(c3oc(=O)cc(-c4ccccc4)c3c1O)C[C@@H](C(C)(C)O)O2 [MESUOL CYCLO F]	5.8 (≈ 14.2 µM)	6.1 (≈ 14.9 µM)	6.4 (≈ 15.7 µM)
CC(C)=CCc1c(O)c(C(=O)C(C)C)c(O)c2c(-c3ccccc3)cc(=O)oc12 [MESUOL]	0.2 (≈ 0.51 µM)	0.3 (≈ 0.764 µM)	0.1 (≈ 0.255 µM)
